Source: patent US9763901B2 (priority 2015, dated 2017)

Assays:
HCV GT1B Replicon = assay: HCV replicon assay (antiviral, luciferase endpoint); assay type: cell-based, hepatitis C virus
From the text: (§1) Stable HCV replicons of different genotypes may be used for anti-HCV evaluation. We use the subgenomic HCV replicons of genotype 1a (H77 strain), 1b (Conl strain), and 2a (JFH-1 strain), which are Huh7 human hepatoma cell lines that contains an HCV replicon.
The HCV replicon antiviral evaluation assay examines the effects of compounds at six serial dilutions. Human interferon alpha-2b (rIFNα-2b) and/or Sofosbuvir are included in each run as a positive control compound.
(§2) Briefly, the replicon cells are plated at 5,000 cells/well into 96-well plates that are dedicated for the analysis of cell numbers (cytotoxicity) or antiviral activity. On the following day, samples are diluted with assay media and added to the appropriate wells. Cells are processed 72 hours later when the cells are still sub-confluent. For the luciferase endpoint assay, HCV replicon levels are assessed as replicon-derived L uc activity. The concentration of drug that reduces cell viability is assessed by the fluorometric CytoTox-1 cell proliferation assay (Promega), (expressed as cell numbers). For the qRT-PCR/TaqMan assay, total RNA is extracted from the replicon cells using RNeasy 96 kit (Qiagen) according to the manufacturer's protocol. Real-time RTPCR/TaqMan assays are performed to measure copy numbers of the replicon RNA and cellular ribosomal RNA. Where applicable EC50 (concentration inhibiting HCV replicon by 50%), EC90 (concentration inhibiting HCV replicon by 90%), CC50 (concentration decreasing cell viability by 50%), CC90 (concentration decreasing cell viability by 90%) and SI (selectivity indices: CC50/EC50 and CC90/EC90) values are derived.

[1] = Cytotoxicity in HCV replicon cells (CytoTox-1); assay type: cell-based; conditions: human, Huh7 hepatoma cells containing a subgenomic HCV replicon, In vitro HCV replicon assay, post infection, read-out: CC50 (concentration decreasing cell viability by 50%)
Procedure: as §1
as §2, with “Where applicable EC50 (concentration inhibiting HCV replicon by 50%), EC90 (concentration inhibiting HCV replicon by 90%), CC50 (concentration decreasing cell viability by 50%), CC90 (concentration decreasing cell viability by 90%) and SI (selectivity indices: CC50/EC50 and CC90/EC90) values are derived.” left out

[2] = system: cell culture-derived HCV (HCVcc); assay: microbe, parasite or virus in culture; assay type: cell-based, hepatitis C virus
Procedure: (§3) Huh7.5 cells are grown in Dulbecco's modified essential media (DMEM), 10% fetal bovine serum (FBS), 1% penicillin-streptomycin (pen-strep), 1% Non-essential amino acids (NEAA) in a 5% CO2 incubator at 37° C. Huh7.5 cells are seeded at 1×10^4 cells per well into 96-well plates according to Southern Research Institute standard format. Test articles are serially diluted with DMEM plus 5% FBS. The diluted compound in the amount of 50 μl is mixed with equal volume of cell culture-derived HCV (HCVcc), then applied to appropriate wells in the plate. Human interferon alpha-2b (rIFNα-2b) and/or Sofosbuvir are included as a positive control. After 72 hr incubation at 37° C., the cells are lysed for measurement of luciferase activity using Renilla Luciferase Assay System (Promega) according to manufacturer's instruction. The number of cells in each well is determined by CytoTox-1 reagent (Promega). Test articles are tested at 6 serial dilutions in triplicate to derive, if applicable, EC50 and EC90 (concentration inhibiting HCVcc infectivity by 50% and 90%, respectively), CC50 (concentration decreasing cell viability by 50%) and SI (selectivity index: CC50/EC50) values (Table 1).

[3] = Cytotoxicity in HCVcc assay (CytoTox-1); assay type: cell-based; conditions: human, Huh7.5 cells infected with cell culture-derived HCV (HCVcc), In vitro HCV cc assay, read-out: CC50 (concentration decreasing cell viability by 50%)
Procedure: as §3

For CCCCOc1ccc(CC(=O)NO)cc1 [Bufexamac], the “anti-hepatitis C activity (in words)” value (HCV GT1B Replicon; HCV replicon assay) was “significant anti-hepatitis C activity”, the EC50 (HCV GT1B Replicon; Hepatitis C virus, GT1B, 72 h, read-out: EC50 (concentration inhibiting HCV replicon by 50%)) was 11.3 µM and the “Selectivity index (CC50/EC50)” value (HCV GT1B Replicon; In vitro HCV replicon assay) was >8.85. For the same molecule, the CC50 at 72 h [1] was > 100 µM, the EC50 ([2]; Hepatitis C virus, Huh7.5, 72 h, read-out: EC50 (concentration inhibiting HCVcc infectivity by 50%)) was 10.2 µM and the “Selectivity index (CC50/EC50)” value ([2]; In vitro HCV cc assay) was 9.80. The “anti-hepatitis C activity (in words)” value ([2]; hepatitis C viral infectivity assay) was “significant anti-hepatitis C activity” and the CC50 at 72 h [3] was 100 µM.
